# Assay results reported in ChEMBL document CHEMBL1142451, “The molecular interactions of buspirone analogues with the serotonin transporter” (Bioorg Med Chem, 2008).
# Target: Sodium-dependent serotonin transporter (Rattus norvegicus, UniProt P31652)
# Test: Displacement of [3H]5-HT from SERT in rat cerebral cortex synaptosome membrane
# Assay type: tissue-based, Brain
# Chain of Sodium-dependent serotonin transporter (Rattus norvegicus, UniProt P31652) (P31652 whole entry): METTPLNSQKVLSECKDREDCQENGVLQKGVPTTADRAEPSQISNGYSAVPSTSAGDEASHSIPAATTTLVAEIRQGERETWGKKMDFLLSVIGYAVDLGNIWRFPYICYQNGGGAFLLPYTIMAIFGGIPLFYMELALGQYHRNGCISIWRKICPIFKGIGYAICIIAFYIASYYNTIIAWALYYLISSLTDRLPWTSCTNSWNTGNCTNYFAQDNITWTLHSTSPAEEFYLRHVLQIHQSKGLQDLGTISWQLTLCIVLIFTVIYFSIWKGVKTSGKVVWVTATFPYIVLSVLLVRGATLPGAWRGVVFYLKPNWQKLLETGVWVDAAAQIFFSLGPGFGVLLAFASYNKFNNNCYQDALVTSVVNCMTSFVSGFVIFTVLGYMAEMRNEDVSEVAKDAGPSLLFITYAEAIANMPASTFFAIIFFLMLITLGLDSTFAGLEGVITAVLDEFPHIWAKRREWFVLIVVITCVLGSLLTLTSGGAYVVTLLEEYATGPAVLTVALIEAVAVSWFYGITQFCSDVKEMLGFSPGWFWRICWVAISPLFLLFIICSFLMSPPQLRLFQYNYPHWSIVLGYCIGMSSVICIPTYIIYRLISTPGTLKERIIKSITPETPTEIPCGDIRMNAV
row,IC50 [nM],SMILES
1,146,CC1(C)CC(=O)N(CCCCN2CCN(c3ccc4ccccc4n3)CC2)C(=O)C1
2,112,O=C1CC2(CCCC2)CC(=O)N1CCCCN1CCN(c2ccc3ccccc3n2)CC1
3,95,O=C1c2ccccc2C(=O)N1CCCCN1CCN(c2ccc3ccccc3n2)CC1
4,33,CC1CN(c2ccc3ccccc3n2)CCN1CCCCN1C(=O)c2ccccc2C1=O (stereo not drawn)

row,SMILES,IC50 [nM]
1,CC1CN(c2ccc3ccccc3n2)CCN1CCCCN1C(=O)CC2(CCCC2)CC1=O (stereo not drawn),75

# Target: Sodium-dependent serotonin transporter (Homo sapiens, UniProt P31645)
# Test: Displacement of [3H]5-HT from human SERT
# Chain of Sodium-dependent serotonin transporter (Homo sapiens, UniProt P31645) (P31645 whole entry): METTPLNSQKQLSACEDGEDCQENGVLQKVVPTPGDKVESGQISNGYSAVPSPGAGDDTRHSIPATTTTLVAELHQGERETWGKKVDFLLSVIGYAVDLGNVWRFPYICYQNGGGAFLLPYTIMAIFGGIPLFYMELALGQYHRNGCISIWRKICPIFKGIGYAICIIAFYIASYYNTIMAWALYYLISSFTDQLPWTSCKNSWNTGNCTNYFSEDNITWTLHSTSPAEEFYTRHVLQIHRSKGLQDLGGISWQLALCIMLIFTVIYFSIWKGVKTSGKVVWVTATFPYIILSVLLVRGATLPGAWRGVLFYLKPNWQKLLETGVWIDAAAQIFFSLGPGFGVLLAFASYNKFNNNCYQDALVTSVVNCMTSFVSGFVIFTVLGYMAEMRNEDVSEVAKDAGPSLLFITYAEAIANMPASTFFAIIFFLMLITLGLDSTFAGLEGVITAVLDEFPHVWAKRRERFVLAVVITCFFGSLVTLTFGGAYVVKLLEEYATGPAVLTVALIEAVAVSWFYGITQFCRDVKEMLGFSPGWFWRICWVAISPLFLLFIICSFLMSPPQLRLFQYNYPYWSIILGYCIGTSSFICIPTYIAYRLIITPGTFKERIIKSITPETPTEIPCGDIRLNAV
row,IC50 [nM],SMILES
1,8,CC1CN(c2ccc3ccccc3n2)CCN1CCCCN1C(=O)c2ccccc2C1=O (stereo not drawn)
2,50,CC1CN(c2ccc3ccccc3n2)CCN1CCCCN1C(=O)CCCC1=O (stereo not drawn)
3,80,CC1CN(c2ccc3ccccc3n2)CCN1CCCN1C(=O)c2ccccc2C1=O (stereo not drawn)
